# Assay results published in patent publication US9670227B2, “Thienopyrimidine derivatives, a process for their preparation and pharmaceutical compositions containing them” (LES LABORATOIRES SERVIER, priority 2013, dated 2017).
# Read-outs that look alike come from different tables or passages of the source.
# Columns and labels:
# Mcl-1 protein = Mcl-1 protein (UniProtKB primary accession number: Q07820) (Homo sapiens, UniProt Q07820); assay: Inhibition of Mcl-1 by fluorescence polarisation, Method 1; assay type: binding; conditions: read-out: IC50 (M) Mcl-1 FP
# Procedure, shortened: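 Fluorescence polarisation competition with an 11-point compound dilution series (final DMSO 5%). Mcl-1 protein at 5 nM and fluorescein-labelled ligand at 1 nM (final) in 10 mM HEPES, 150 mM NaCl, 0.05% Tween 20, pH 7.4.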
# [1] = test system: H929 multiple myeloma tumour line; assay: In vitro cytotoxicity, Microculture Tetrazolium Assay; assay type: cell-based; conditions: Homo sapiens, NCI-H929, 48 h, H929 cells, 48 hours exposure, read-out: IC50 (μM) MTT H929
# Description: The cytotoxicity studies were carried out on the H929 multiple myeloma tumour line.
# The cells are distributed onto microplates and exposed to the test compounds for 48 hours.
# [2] = test system: AMO-1 multiple myeloma cells; assay: Quantification of the cleaved form of PARP in vivo (MSD ELISA, tumour lysates); parameters: species or system mice (SCID strain); conditions: activation factor: cleaved PARP in treated mice / control mice, AMO-1 xenograft in SCID mice, intraveinous or oral routes
# Description: The ability of the compounds of the invention to induce apoptosis, by measuring cleaved PARP levels, is evaluated in a xenograft model of AMO-1 multiple myeloma cells. 1.10^7 AMO-1 cells are grafted sub-cutaneously into immunosuppressed mice (SCID strain). 12 to 14 days after the graft, the animals are treated by intraveinous or oral routes with the various compounds. After treatment, the tumour masses are recovered and lysed, and the cleaved form of PARP is quantified in the tumour lysates.
# The quantification is carried out using the “Meso Scale Discovery (MSD) ELISA platform” test, which specifically assays the cleaved form of PARP. It is expressed in the form of an activation factor corresponding to the ratio between the quantity of cleaved PARP in the treated mice divided by the quantity of cleaved PARP in the control mice.
# [3] = fluorescence polarisation test, Method 1, or Method 2 where the value is underlined (underlining not visible)
# [4] = fluorescence polarisation test, Method 2 values are underlined in the patent (underlining not visible here)
# [5] = fluorescence polarisation, Method 1, or Method 2
# Sequence of Mcl-1 protein (Q07820 whole entry): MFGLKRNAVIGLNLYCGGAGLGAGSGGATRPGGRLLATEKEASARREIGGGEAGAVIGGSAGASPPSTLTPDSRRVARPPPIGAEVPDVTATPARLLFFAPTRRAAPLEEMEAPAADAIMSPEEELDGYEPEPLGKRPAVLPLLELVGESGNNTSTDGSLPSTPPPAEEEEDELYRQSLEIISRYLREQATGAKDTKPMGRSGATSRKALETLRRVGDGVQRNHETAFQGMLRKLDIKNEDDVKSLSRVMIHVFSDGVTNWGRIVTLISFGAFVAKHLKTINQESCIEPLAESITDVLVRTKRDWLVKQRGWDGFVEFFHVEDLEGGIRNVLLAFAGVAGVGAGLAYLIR
Compound,IC50 (Mcl-1 protein; [3]),IC50 (Mcl-1 protein; [4]),IC50 (Mcl-1 protein; [5]),IC50 ([1]; cell viability),PARP fold [2],IC50 ([1]; MTT)
"Cc1c(-c2c(-c3ccc(F)o3)sc3ncnc(OC(Cc4ccccc4OCc4ccnc(-c5cccs5)n4)C(=O)O)c23)ccc(OCCN2CCN(C)CC2)c1Cl [Example 171, (2R)-2-{[(5Sa)-5-{3-chloro-2-methyl-4-[2-(4-methylpiperazin-1-yl)ethoxy]phenyl}-6-(5-fluorofuran-2-yl)thieno[2,3-d]pyrimidin-4-yl]oxy}-3-(2-{[2-(thiophen-2-yl)pyrimidin-4-yl]methoxy}phenyl)propanoic acid]",–,4.1e-09 M,–,–,207.4 fold,0.003 µM
"CC#Cc1sc2ncnc(OC(Cc3ccccc3OCc3ccnn3C(C)(C)C)C(=O)O)c2c1-c1ccc(OCCN2CCN(C)CC2)c(Cl)c1C [Example 488, (2R)-3-{2-[(1-tert-butyl-1H-pyrazol-5-yl)methoxy]phenyl}-2-{[(5Sa)-5-{3-chloro-2-methyl-4-[2-(4-methylpiperazin-1-yl)ethoxy]phenyl}-6-(prop-1-yn-1-yl)thieno[2,3-d]pyrimidin-4-yl]oxy}propanoic acid]",–,–,5.4e-09 M,–,175.5 fold,0.014 µM
"Cc1c(-c2c(-c3ccc(F)cc3)sc3ncnc(OC(Cc4ccccc4OCc4ccnc(-n5cccn5)n4)C(=O)O)c23)ccc(OCCN2CCN(C)CC2)c1Cl [Example 49, (2R)-2-{[(5Sa)-5-{3-chloro-2-methyl-4-[2-(4-methylpiperazin-1-yl)ethoxy]phenyl}-6-(4-fluorophenyl)thieno[2,3-d]pyrimidin-4-yl]oxy}-3-(2-{[2-(1H-pyrazol-1-yl)pyrimidin-4-yl]methoxy}phenyl)propanoic acid]",–,2.5e-09 M,–,–,180.5 fold,0.012 µM
"COc1cc(COc2ccccc2CC(Oc2ncnc3sc(-c4ccc(F)o4)c(-c4ccc(OCCN5CCN(C)CC5)c(Cl)c4C)c23)C(=O)O)ccn1 [Example 168, (2R)-2-{[(5Sa)-5-{3-chloro-2-methyl-4-[2-(4-methylpiperazin-1-yl)ethoxy]phenyl}-6-(5-fluorofuran-2-yl)thieno[2,3-d]pyrimidin-4-yl]oxy}-3-{2-[(2-methoxypyridin-4-yl)methoxy]phenyl}propanoic acid]",–,2.8e-09 M,–,–,179.2 fold,0.025 µM
"Cc1c(-c2c(-c3ccc(F)o3)sc3ncnc(OC(Cc4ccccc4OCc4ccnc(C5CC5)n4)C(=O)O)c23)ccc(OCCN2CCN(C)CC2)c1Cl [Example 170, (2R)-2-{[(5Sa)-5-{3-chloro-2-methyl-4-[2-(4-methylpiperazin-1-yl)ethoxy]phenyl}-6-(5-fluorofuran-2-yl)thieno[2,3-d]pyrimidin-4-yl]oxy}-3-{2-[(2-cyclopropylpyrimidin-4-yl)methoxy]phenyl}propanoic acid]",–,5.3e-09 M,–,–,144 fold,0.006 µM
"CCOc1nccc(COc2ccccc2CC(Oc2ncnc3sc(-c4ccc(F)cc4)c(-c4ccc(OCCN5CCN(C)CC5)c(Cl)c4C)c23)C(=O)O)n1 [Example 57, (2R)-2-{[(5Sa)-5-{3-chloro-2-methyl-4-[2-(4-methylpiperazin-1-yl)ethoxy]phenyl}-6-(4-fluorophenyl)thieno[2,3-d]pyrimidin-4-yl]oxy}-3-{2-[(2-ethoxypyrimidin-4-yl)methoxy]phenyl}propanoic acid]",–,5e-09 M,–,–,198.3 fold,0.008 µM
"Cc1c(-c2c(-c3ccc(F)o3)sc3ncnc(OC(Cc4ccccc4OCc4ccnc(N5CCOCC5)n4)C(=O)O)c23)ccc(OCCN(C)C)c1Cl [Example 202, (2R)-2-{[(5Sa)-5-{3-chloro-4-[2-(dimethylamino)ethoxy]-2-methylphenyl}-6-(5-fluorofuran-2-yl)thieno[2,3-d]pyrimidin-4-yl]oxy}-3-(2-{[2-(morpholin-4-yl)pyrimidin-4-yl]methoxy}phenyl)propanoic acid]",–,3.5e-09 M,–,–,153.8 fold,0.009 µM
"COCCOc1nccc(COc2ccccc2CC(Oc2ncnc3sc(-c4ccc(F)cc4)c(-c4ccc(OCCN5CCN(C)CC5)c(Cl)c4C)c23)C(=O)O)n1 [Example 63, (2R)-2-{[(5Sa)-5-{3-chloro-2-methyl-4-[2-(4-methylpiperazin-1-yl)ethoxy]phenyl}-6-(4-fluorophenyl)thieno[2,3-d]pyrimidin-4-yl]oxy}-3-(2-{[2-(2-methoxyethoxy)pyrimidin-4-yl]methoxy}phenyl)propanoic acid]",–,4.5e-09 M,–,–,177.8 fold,0.009 µM
"Cc1c(-c2c(-c3ccc(F)cc3)sc3ncnc(OC(Cc4ccccc4OCc4ccnc(OCC(F)(F)F)n4)C(=O)O)c23)ccc(OCCN2CCN(C)CC2)c1Cl [Example 58, (2R)-2-{[(5Sa)-5-{3-chloro-2-methyl-4-[2-(4-methylpiperazin-1-yl)ethoxy]phenyl}-6-(4-fluorophenyl)thieno[2,3-d]pyrimidin-4-yl]oxy}-3-(2-{[2-(2,2,2-trifluoroethoxy)pyrimidin-4-yl]methoxy}phenyl)propanoic acid]",–,4e-09 M,–,–,181.9 fold,0.01 µM

# Further lines, with some results ahead:
IC50 (Mcl-1 protein; [3]),IC50 (Mcl-1 protein; [4]),IC50 (Mcl-1 protein; [5]),Compound,IC50 ([1]; cell viability),PARP fold [2],IC50 ([1]; MTT)
8.55e-09 M,–,–,"COc1ccccc1-c1nccc(COc2ccccc2CC(Oc2ncnc3sc(-c4ccc(F)cc4)c(-c4ccc(OCCN5CCN(C)CC5)c(Cl)c4C)c23)C(=O)OCc2oc(=O)oc2C)n1 [Example 811, (5-methyl-2-oxo-1,3-dioxol-4-yl)methyl (2R)-2-{[(5Sa)-5-{3-chloro-2-methyl-4-[2-(4-methylpiperazin-1-yl)ethoxy]phenyl}-6-(4-fluorophenyl)thieno[2,3-d]pyrimidin-4-yl]oxy}-3-(2-{[2-(2-methoxyphenyl)pyrimidin-4-yl]methoxy}phenyl)propanoate]",0.002 µM,117.6 fold,–
–,–,3.82e-07 M,"COCCOC(=O)C(Cc1ccccc1OCc1ccnc(-c2ccccc2OC)n1)Oc1ncnc2sc(-c3ccc(F)cc3)c(-c3ccc(OCCN4CCN(C)CC4)c(Cl)c3C)c12 [Example 789, 2-methoxyethyl (2R)-2-{[(5Sa)-5-{3-chloro-2-methyl-4-[2-(4-methylpiperazin-1-yl)ethoxy]phenyl}-6-(4-fluorophenyl)thieno[2,3-d]pyrimidin-4-yl]oxy}-3-(2-{[2-(2-methoxyphenyl)pyrimidin-4-yl]methoxy}phenyl)propanoate]",–,135.2 fold,0.206 µM
–,–,9.48e-10 M,"COc1ccccc1-c1nccc(COc2ccccc2CC(Oc2ncnc3sc(-c4ccc(F)cc4)c(-c4ccc(OCCN5CCN(C)CC5)c(Cl)c4Br)c23)C(=O)O)n1 [Example 742, (2R)-2-{[(5Sa)-5-{2-bromo-3-chloro-4-[2-(4-methylpiperazin-1-yl)ethoxy]phenyl}-6-(4-fluorophenyl)thieno[2,3-d]pyrimidin-4-yl]oxy}-3-(2-{[2-(2-methoxyphenyl)pyrimidin-4-yl]methoxy}phenyl)propanoic acid]",–,267.2 fold,0.002 µM
6.39e-07 M,–,–,"COCCOCCOC(=O)C(Cc1ccccc1OCc1ccnc(-c2ccccc2OC)n1)Oc1ncnc2sc(-c3ccc(F)cc3)c(-c3ccc(OCCN4CCN(C)CC4)c(Cl)c3C)c12 [Example 814, 2-(2-methoxyethoxy)ethyl (2R)-2-{[(5Sa)-5-{3-chloro-2-methyl-4-[2-(4-methylpiperazin-1-yl)ethoxy]phenyl}-6-(4-fluorophenyl)thieno[2,3-d]pyrimidin-4-yl]oxy}-3-(2-{[2-(2-methoxyphenyl)pyrimidin-4-yl]methoxy}phenyl)propanoate]",0.314 µM,118.5 fold,–
–,–,3.95e-09 M,"Cc1c(-c2c(-c3ccc(F)cc3)sc3ncnc(OC(Cc4ccccc4OCc4ccnc(-c5ccccc5F)n4)C(=O)O)c23)ccc(OCCN(C)C)c1Cl [Example 757, (2R)-2-{[(5Sa)-5-{3-chloro-4-[2-(dimethylamino)ethoxy]-2-methylphenyl}-6-(4-fluorophenyl)thieno[2,3-d]pyrimidin-4-yl]oxy}-3-(2-{[2-(2-fluorophenyl)pyrimidin-4-yl]methoxy}phenyl)propanoic acid]",–,135.6 fold,0.013 µM
–,–,1.2e-09 M,"CC#Cc1sc2ncnc(OC(Cc3ccccc3OCc3ccnn3CC(F)(F)F)C(=O)O)c2c1-c1ccc(OCCN2CCN(C)CC2)c(Cl)c1C [Example 489, (2R)-2-{[(5Sa)-5-{3-chloro-2-methyl-4-[2-(4-methylpiperazin-1-yl)ethoxy]phenyl}-6-(prop-1-yn-1-yl)thieno[2,3-d]pyrimidin-4-yl]oxy}-3-(2-{[1-(2,2,2-trifluoroethyl)-1H-pyrazol-5-yl]methoxy}phenyl)propanoic acid]",–,233.2 fold,0.026 µM
